pIC50: −log10 of the molar value.
Target: T1, Human KDR (Homo sapiens, UniProt P35968)
T1 construct: expressed in transfected cells; host or cells: NIH3T3 cells (mouse fibroblasts)
Assay: Inhibition of KDR phosphorylation in human KDR-transfected NIH3T3 cells (ELISA)
Type: cell-based
Settings: for Selection ratio (KDR phosphorylation IC50 / c-fms phosphorylation IC50): class 0-3; for pIC50: human KDR-transfected NIH3T3 cells, VEGF 100 ng/ml, ELISA, read-out: KDR phosphorylation 50% inhibitory concentration (IC50)
Method: Human KDR-transfected NIH3T3 cells (Sawano A et al., Cell Growth & Differentiation, 7, 213-221 (1996)) were cultured in a DMEM medium containing 10% fetal calf serum (purchased from GIBCO BRL) within a 5% carbon dioxide incubator until 50 to 70% confluent. The harvested cells were seeded into wells, containing the same medium, in a collagen type 1 coat 96-well flat-bottom plate in an amount of 1.5×10^4 per well, and cultured at 37° C. overnight. The medium was replaced with a 0.1% fetal calf serum-containing DMEM medium. The test compound dissolved in dimethyl sulfoxide was added to each well, and the cultivation was continued at 37° C. for additional one hr. A human recombinant vascular endothelial growth factor (hereinafter abbreviated to “VEGF”) was added to a final concentration of 100 ng/ml, followed by stimulation of cells at 37° C. for 2 min. The medium was removed, and the cells were washed with phosphate buffered saline (pH 7.4). A solubilization buffer (50 μl) (20 mM HEPES (pH 7.4), 150 mM NaCl, 0.2% Triton X-100, 10% glycerol, 5 mM sodium orthovanadylate, 5 mM disodium ethylenediaminetetraacetate, and 2 mM Na4P2O7) was then added thereto. The mixture was shaken at 4° C. for 2 hr to prepare a cell extract.
Separately, phosphate buffered saline (50 μl, pH 7.4) containing 5 μg/ml of anti-phospho-tyrosine antibody (PY20; purchased from Transduction Laboratories) was added to a microplate for ELISA (Maxisorp; purchased from NUNC), followed by standing at 4° C. overnight to be immobilized on the wells. After washing of the plate, 300 μl of a blocking solution was added, followed by standing at room temperature for 2 hr to perform blocking. After washing, the whole cell extract was transferred and was allowed to stand at 4° C. overnight. After washing, an anti-KDR antibody (purchased from Santa Cruz Biotechnology) was allowed to react at room temperature for one hr. Further, after washing, a peroxidase-labeled anti-rabbit Ig antibody (purchased from Amersham) was allowed to react at room temperature for one hr. After washing, a chromophoric substrate for peroxidase (purchased from Sumitomo Bakelite Co., Ltd.) was added thereto to initiate a reaction. After a suitable level of color development, a reaction termination solution was added to stop the reaction, and the absorbance at 450 nm was measured with a microplate reader. The KDR phosphorylation activity for each well was determined by presuming the absorbance without the addition of the test compound and with the addition of VEGF to be 100% KDR phosphorylation activity and the absorbance without the addition of the test compound and VEGF to be 0% KDR phosphorylation activity. The concentration of the test compound was varied on several levels, the KDR phosphorylation inhibitory rate was determined for each case, and the concentration of the test compound necessary for inhibiting 50% of KDR phosphorylation (IC50) was calculated.

T1 sequence (P35968 20-1356): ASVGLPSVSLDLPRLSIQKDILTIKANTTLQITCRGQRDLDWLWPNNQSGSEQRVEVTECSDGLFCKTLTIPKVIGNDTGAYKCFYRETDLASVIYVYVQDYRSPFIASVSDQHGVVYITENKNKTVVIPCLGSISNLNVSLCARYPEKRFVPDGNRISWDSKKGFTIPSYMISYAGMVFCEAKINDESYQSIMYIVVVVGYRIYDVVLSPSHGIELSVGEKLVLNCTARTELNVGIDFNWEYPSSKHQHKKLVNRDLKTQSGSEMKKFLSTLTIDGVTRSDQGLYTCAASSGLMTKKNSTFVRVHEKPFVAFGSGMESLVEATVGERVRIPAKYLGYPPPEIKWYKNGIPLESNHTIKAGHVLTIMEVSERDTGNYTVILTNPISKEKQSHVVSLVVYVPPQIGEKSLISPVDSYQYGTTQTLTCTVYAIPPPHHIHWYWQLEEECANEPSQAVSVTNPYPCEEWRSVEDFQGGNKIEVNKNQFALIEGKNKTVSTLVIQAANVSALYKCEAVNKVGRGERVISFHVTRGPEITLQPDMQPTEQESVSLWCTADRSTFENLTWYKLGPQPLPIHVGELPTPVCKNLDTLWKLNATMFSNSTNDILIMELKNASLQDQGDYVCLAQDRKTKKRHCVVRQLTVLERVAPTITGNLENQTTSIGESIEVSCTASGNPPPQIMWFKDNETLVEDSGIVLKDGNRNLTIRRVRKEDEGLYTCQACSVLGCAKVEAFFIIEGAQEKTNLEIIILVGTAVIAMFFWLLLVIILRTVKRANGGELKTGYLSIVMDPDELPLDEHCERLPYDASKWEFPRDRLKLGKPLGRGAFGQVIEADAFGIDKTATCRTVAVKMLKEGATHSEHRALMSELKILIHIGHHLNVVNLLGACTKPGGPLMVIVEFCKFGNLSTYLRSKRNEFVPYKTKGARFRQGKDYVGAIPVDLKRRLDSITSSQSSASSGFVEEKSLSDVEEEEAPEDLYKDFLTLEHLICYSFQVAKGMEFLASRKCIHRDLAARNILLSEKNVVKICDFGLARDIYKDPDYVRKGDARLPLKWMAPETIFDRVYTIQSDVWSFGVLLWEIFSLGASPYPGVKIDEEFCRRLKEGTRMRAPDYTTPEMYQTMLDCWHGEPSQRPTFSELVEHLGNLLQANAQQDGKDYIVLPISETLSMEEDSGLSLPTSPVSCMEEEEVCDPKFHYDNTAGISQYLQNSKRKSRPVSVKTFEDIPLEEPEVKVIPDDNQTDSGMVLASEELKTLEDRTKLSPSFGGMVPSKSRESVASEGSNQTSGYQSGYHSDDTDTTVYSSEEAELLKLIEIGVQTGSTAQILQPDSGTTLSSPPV

| Structure (SMILES) | Selection ratio (KDR phosphorylation IC50 / c-fms phosphorylation IC50) | pIC50 |
| --- | --- | --- |
| COc1cc2nccc(Oc3cc(C)c(NC(=O)NC(C)c4ccc(F)cc4)cc3C)c2cc1OC (stereo not drawn) [Example 7, N-{4-[(6,7-Dimethoxy-4-quinolyl)oxy]-2,5-dimethylphenyl}-N′-[1-(4-fluorophenyl)ethyl]urea] | 0 (KDR phosphorylation 50% inhibitory concentration [μM]/c-fms phosphorylation 50% inhibitory concentration [μM] was less than 5) | 8.51 |
| COc1cc2nccc(Oc3ccc(NC(=O)N[C@@H](C)c4ccc(Br)cc4)cc3)c2cc1OC [Example 34, N-[(1S)-1-(4-Bromophenyl)ethyl]-N′-{4-[(6,7-dimethoxy-4-quinolyl)oxy]phenyl}urea] | 2 (when the value was 10 or more) | 6.53 |
| COc1cc2nccc(Oc3ccc(NC(=O)N[C@H](C)c4cccc(Br)c4)c(F)c3)c2cc1OC [Example 63, N-[(1R)-1-(3-Bromophenyl)ethyl]-N′-{4-[(6,7-dimethoxy-4-quinolyl)oxy]-2-fluorophenyl}urea] | 0 (KDR phosphorylation 50% inhibitory concentration [μM]/c-fms phosphorylation 50% inhibitory concentration [μM] was less than 5) | 8.59 |
| COc1cc2nccc(Oc3ccc(NC(=O)N[C@@H](C)c4ccc(F)cc4)c(C(F)(F)F)c3)c2cc1OC [Example 20, N-[4-[(6,7-Dimethoxy-4-quinolyl)oxy]-2-(trifluoromethyl)phenyl]-N′-[(1S)-1-(4-fluorophenyl)ethyl]urea] | 2 (when the value was 10 or more) | 6.84 |
| COc1cc2nccc(Oc3ccc(NC(=O)N[C@@H](C)c4ccc(F)cc4)c(Cl)c3)c2cc1OC [Example 5, N-{2-Chloro-4-[(6,7-dimethoxy-4-quinolyl)oxy]phenyl}-N′-[(1S)-1-(4-fluorophenyl)ethyl]urea] | 1 (when the value was 5 or more) | 7.67 |
| COc1cc2nccc(Oc3ccc(NC(=O)NC(C)c4ncc(C)s4)c(C)c3)c2cc1OC (stereo not drawn) [Example 103, N-{4-[(6,7-Dimethoxy-4-quinolyl)oxy]-2-methylphenyl}-N′-[1-(5-methyl-1,3-thiazol-2-yl)ethyl]urea] | 0 (KDR phosphorylation 50% inhibitory concentration [μM]/c-fms phosphorylation 50% inhibitory concentration [μM] was less than 5) | 7.04 |
| COc1cc(Oc2ccnc3cc(OC)c(OC)cc23)ccc1NC(=O)N[C@H](C)c1cccc(Br)c1 [Example 59, N-[(1R)-1-(3-Bromophenyl)ethyl]-N′-{4-[(6,7-dimethoxy-4-quinolyl)oxy]-2-methoxyphenyl}urea] | 0 (KDR phosphorylation 50% inhibitory concentration [μM]/c-fms phosphorylation 50% inhibitory concentration [μM] was less than 5) | 8.06 |
| COc1cc2nccc(Oc3ccc(NC(=O)N[C@H](C)c4ccc(F)cc4)c(C)c3)c2cc1OC [Example 15, N-{4-[(6,7-Dimethoxy-4-quinolyl)oxy]-2-methylphenyl}-N′-[(1R)-1-(4-fluorophenyl)ethyl]urea] | 0 (KDR phosphorylation 50% inhibitory concentration [μM]/c-fms phosphorylation 50% inhibitory concentration [μM] was less than 5) | > 9.00 |
| COc1cc2nccc(Oc3ccc(NC(=O)NC(C)c4ncc(C)s4)cc3F)c2cc1OC (stereo not drawn) [Example 102, N-{4-[(6,7-Dimethoxy-4-quinolyl)oxy]-3-fluorophenyl}-N′-[1-(5-methyl-1,3-thiazol-2-yl)ethyl]urea] | 2 (when the value was 10 or more) | 6.66 |
| COc1cc2nccc(Oc3cc(C)c(NC(=O)NC(C)c4nc(C)cs4)cc3C)c2cc1OC (stereo not drawn) [Example 93, N-{4-[(6,7-Dimethoxy-4-quinolyl)oxy]-2,5-dimethylphenyl}-N′-[1-(4-methyl-1,3-thiazol-2-yl)ethyl]urea] | 1 (when the value was 5 or more) | 6.57 |
| COc1cc2nccc(Oc3ccc(NC(=O)N[C@H](C)c4cccc(Br)c4)c(Cl)c3)c2cc1OC [Example 55, N-[(1R)-1-(3-Bromophenyl)ethyl]-N′-{2-chloro-4-[(6,7-dimethoxy-4-quinolyl)oxy]phenyl}urea] | 0 (KDR phosphorylation 50% inhibitory concentration [μM]/c-fms phosphorylation 50% inhibitory concentration [μM] was less than 5) | 8.80 |
| COc1cc2nccc(Oc3ccc(NC(=O)N[C@H](C)c4ccc(F)cc4)c(Cl)c3)c2cc1OC [Example 6, N-{2-Chloro-4-[(6,7-dimethoxy-4-quinolyl)oxy]phenyl}-N′-[(1R)-1-(4-fluorophenyl)ethyl]urea] | 0 (KDR phosphorylation 50% inhibitory concentration [μM]/c-fms phosphorylation 50% inhibitory concentration [μM] was less than 5) | 8.74 |
| COc1cc2nccc(Oc3ccc(NC(=O)NC(C)c4ccc(F)cc4)cc3)c2cc1OC (stereo not drawn) [Example 1, N-{4-[(6,7-Dimethoxy-4-quinolyl)oxy]phenyl}-N′-[1-(4-fluorophenyl)ethyl]urea] | 0 (KDR phosphorylation 50% inhibitory concentration [μM]/c-fms phosphorylation 50% inhibitory concentration [μM] was less than 5) | 8.96 |
| COc1cc2nccc(Oc3ccc(NC(=O)NC(C)c4nc(C)cs4)c(C(F)(F)F)c3)c2cc1OC (stereo not drawn) [Example 92, N-[4-[(6,7-Dimethoxy-4-quinolyl)oxy]-2-(trifluoromethyl)phenyl]-N′-[1-(4-methyl-1,3-thiazol-2-yl)ethyl]urea] | 0 (KDR phosphorylation 50% inhibitory concentration [μM]/c-fms phosphorylation 50% inhibitory concentration [μM] was less than 5) | 8.37 |
| COc1cc2nccc(Oc3ccc(NC(=O)N[C@H](C)c4ccc(F)cc4)c(C(F)(F)F)c3)c2cc1OC [Example 21, N-[4-[(6,7-Dimethoxy-4-quinolyl)oxy]-2-(trifluoromethyl)phenyl]-N′-[(1R)-1-(4-fluorophenyl)ethyl]urea] | 0 (KDR phosphorylation 50% inhibitory concentration [μM]/c-fms phosphorylation 50% inhibitory concentration [μM] was less than 5) | 8.68 |
| COc1cc2nccc(Oc3ccc(NC(=O)N[C@@H](C)c4ccccc4OC)cc3)c2cc1OC [Example 51, N-{4-[(6,7-Dimethoxy-4-quinolyl)oxy]phenyl}-N′-[(1S)-1-(2-methoxyphenyl)ethyl]urea] | 1 (when the value was 5 or more) | 7.42 |

Second part, the compound after the results:

| Selection ratio (KDR phosphorylation IC50 / c-fms phosphorylation IC50) | pIC50 | Structure (SMILES) |
| --- | --- | --- |
| 2 (when the value was 10 or more) | 7.27 | COc1cc2nccc(Oc3ccc(NC(=O)N[C@@H](C)c4nccs4)cc3)c2cc1OC [Example 78, N-{4-[(6,7-Dimethoxy-4-quinolyl)oxy]phenyl}-N′-[(S)-1-(1,3-thiazol-2-yl)ethyl]urea] |
| 2 (when the value was 10 or more) | 7.43 | COc1ccc([C@H](C)NC(=O)Nc2ccc(Oc3ccnc4cc(OC)c(OC)cc34)cc2)cc1 [Example 53, N-{4-[(6,7-Dimethoxy-4-quinolyl)oxy]phenyl}-N′-[(1S)-1-(4-methoxyphenyl)ethyl]urea] |
| 2 (when the value was 10 or more) | 6.95 | COc1cc(Oc2ccnc3cc(OC)c(OC)cc23)ccc1NC(=O)NC(C)c1nc(C)cs1 (stereo not drawn) [Example 90, N-{4-[(6,7-Dimethoxy-4-quinolyl)oxy]-2-methoxyphenyl}-N′-[1-(4-methyl-1,3-thiazol-2-yl)ethyl]urea] |
| 2 (when the value was 10 or more) | 6.51 | COc1cc2nccc(Oc3ccc(NC(=O)NC(C)c4ncc(C)s4)cc3)c2cc1OC (stereo not drawn) [Example 100, N-{4-[(6,7-Dimethoxy-4-quinolyl)oxy]phenyl}-N′-[1-(5-methyl-1,3-thiazol-2-yl)ethyl]urea] |
| 1 (when the value was 5 or more) | 7.54 | COc1cc2nccc(Oc3ccc(NC(=O)NC(C)c4nc(C)cs4)cc3)c2cc1OC (stereo not drawn) [Example 91, N-{4-[(6,7-Dimethoxy-4-quinolyl)oxy]phenyl}-N′-[1-(4-methyl-1,3-thiazol-2-yl)ethyl]urea] |

Reference: patent US7598258B2, “Quinoline derivatives and quinazoline derivatives inhibiting autophosphorylation of macrophage colony stimulating factor receptor” (Kirin Beer Kabushiki Kaisha, priority 2002, dated 2009)
